Here are results for 5 compounds from ChEMBL document CHEMBL3351759, “Synthesis and antitumor activity of novel 3-oxo-23-hydroxybetulinic acid derivatives” (Eur J Med Chem, 2014).

Series [1] in a line: Antiproliferative activity against human HL60 cells after 72 hrs MTT assay. To be noted: HL-60, 72 h. It counts as functional, cell-based. Background: Formazan colour is commonly taken as a measure of viable cells.
Series [2] can be described thus: Antiproliferative activity against human Bel7402 cells after 72 hrs MTT assay. To be noted: Bel-7402, 72 h. The class given is functional, cell-based.
The nature of series [3]: Antiproliferative activity against human SF763 cells after 72 hrs MTT assay. It counts as functional, cell-based. To be noted: SF763, 72 h.
The test system of a further series is HeLa. In words: Antiproliferative activity against human HeLa cells after 72 hrs MTT assay. It counts as functional, cell-based.
Series [4] has as its system B16. In words: Antiproliferative activity against mouse B16 cells after 72 hrs MTT assay. The class given is functional, cell-based. To be noted: B16, 72 h.
The subject of series [5] is H22. In words: Antitumor activity against […] H22 cells transplanted in ICR mouse assessed as tumor growth inhibition at 30 mg/kg, ip administered 7 days post tumor transplantation. It counts as functional. To be noted: 168 h, route intraperitoneal.
In series [6] the test system is B16. In words: Antitumor activity against mouse B16 cells transplanted in ICR mouse assessed as tumor growth inhibition at 30 mg/kg, ip administered 7 days post tumor transplantation. The class given is functional. To be noted: 168 h, route intraperitoneal.
Series [7] concerns Mus musculus. Briefly: Toxicity in […] H22 cells transplanted ICR mouse assessed as mouse survival at 30 mg/kg, ip administered 7 days post tumor transplantation. It counts as organism-based. On the set-up: dose 30 mg/kg, route intraperitoneal. The following applies: in vivo, 168 h.
Series [8] has as its system Mus musculus. In words: Toxicity in […] H22 cells transplanted ICR mouse assessed as mouse body weight at 30 mg/kg, ip administered 7 days post tumor transplantation (reference value: 18.4 to 18.9g). It counts as organism-based. On the set-up: dose 30 mg/kg, route intraperitoneal. The following applies: in vivo, 168 h.
Series [9] has as its system Mus musculus. Briefly: Toxicity in mouse […] cells transplanted ICR mouse assessed as mouse survival at 30 mg/kg, ip administered 7 days post tumor transplantation. On the set-up: dose 30 mg/kg, route intraperitoneal. The following applies: in vivo, 168 h. The class given is organism-based.
In series [10] the test system is Mus musculus. In words: Toxicity in mouse […] cells transplanted ICR mouse assessed as mouse body weight at 30 mg/kg, iv administered 7 days post tumor transplantation (reference value: 18.3 to 18.6g). On the set-up: dose 30 mg/kg, route intravenous. To be noted: in vivo, 168 h. The class given is organism-based.
The subject of series [11] is H22. Briefly: Antitumor activity against human H22 cells transplanted in ICR mouse assessed as tumor growth inhibition at 30 mg/kg, iv administered 7 days post tumor transplantation. The following applies: 168 h, read-out: INH.
The subject of series [12] is B16. Briefly: Antitumor activity against mouse B16 cells transplanted in ICR mouse assessed as tumor growth inhibition at 30 mg/kg, iv administered 7 days post tumor transplantation. It counts as functional. The following applies: B16, 168 h.
In series [13] the test system is Mus musculus. Briefly: Toxicity in mouse […] cells transplanted ICR mouse assessed as mouse survival at 30 mg/kg, iv administered 7 days post tumor transplantation. On the set-up: dose 30 mg/kg, route intravenous. The class given is organism-based. The following applies: in vivo, 168 h.
Series [14] deals with Mus musculus. Briefly: Toxicity in mouse B6 cells transplanted ICR mouse assessed as mouse body weight at 30 mg/kg, iv administered 7 days post tumor transplantation (reference value: 18.2 +/- 0.5g). It counts as organism-based. On the set-up: dose 30 mg/kg, route intravenous. The following applies: in vivo, 168 h.

The term IC50 denotes the point on the concentration scale where inhibition reaches its midpoint. Take `C=C(C)[C@@H]1CC[C@]2(C(=O)O)CC[C@]3(C)[C@H](CC[C@@H]4[C@@]5(C)CC[C@H](O)[C@@](C)(CO)[C@@H]5CC[C@]43C)[C@@H]12`: the half-maximal inhibitory concentration (IC50) in series [1] is 45.1 µM; in series [2] it was 39.7 µM; in [3] it was 43.4 µM; with HeLa it was 52.4 µM; with B16 [4] it was 29.9 µM. Besides, the inhibition in vivo at 30 mg/kg with H22 [5] stood at 27.8%; in the series on B16 [6] it was 32.4%. For the same compound, the Activity result with Mus musculus [7] is on record as “Non-toxic”; in the series on Mus musculus [8], 26.1 g; in the series on Mus musculus [9] it was “Non-toxic”; in the series on Mus musculus [10], 26.7 g.

Take `C=C(C)[C@@H]1CC[C@]2(C(=O)NCCN)CC[C@]3(C)[C@H](CC[C@@H]4[C@@]5(C)CCC(=O)[C@@](C)(COC(C)=O)[C@@H]5CC[C@]43C)[C@@H]12`: the IC50 amounted to 8.64 µM in [1]; 7.22 µM in series [2]; 6.23 µM in series [3]; 10.6 µM in the series with HeLa; 5.58 µM in the series with B16 [4]. In addition, the inhibition in vivo at 30 mg/kg in the series on H22 [5] was determined as 51.8%; with B16 [6], 62.7%. In addition, the Activity entry in the series with Mus musculus [7] is listed as “Non-toxic”; with Mus musculus [8], 27.2 g; with Mus musculus [9], “Non-toxic”; in the series on Mus musculus [10], 26.9 g.

Regarding `C=C(C)[C@@H]1CC[C@]2(C(=O)O)CC[C@]3(C)[C@H](CC[C@@H]4[C@@]5(C)CCC(=O)[C@@](C)(CO)[C@@H]5CC[C@]43C)[C@@H]12`, the half-maximal inhibitory concentration (IC50) in series [1] turned out to be 36.1 µM; in [2], 33.8 µM; in series [3], 29.3 µM; in the series with HeLa, 39.2 µM; in the series with B16 [4], 20.6 µM. In addition, the inhibition in vivo at 30 mg/kg in the series with H22 [5] was found to be 39.5%; in the series with B16 [6], 48.1%. The Activity result in the series on Mus musculus [7] is reported as “Non-toxic”; with Mus musculus [8], 26.8 g; with Mus musculus [9], “Non-toxic”; with Mus musculus [10], 27.3 g.

Turning to `O=P1(N(CCCl)CCCl)NCCCO1` (configuration not stated) [CYCLOPHOSPHAMIDE ANHYDROUS], the inhibition in vivo at 30 mg/kg in the series with H22 [11] was found to be 53.7%.

For `O=c1[nH]cc(F)c(=O)[nH]1` [FLUOROURACIL], in the series with B16 [12], the inhibition in vivo at 30 mg/kg came out at 70.3%. For the same compound, the Activity result was “Non-toxic” in the series with Mus musculus [13] and 26.2 g with Mus musculus [14].
